The text below walks through data of patent US11512057B2, “Unsaturated hydrocarbon pyrimidine thioether compounds and preparation method and application thereof” (Zhejiang University of Technology, priority 2018, dated 2022).

Common to all, as to assay type: in vivo
Assay [1] concerns nymphs of Tetranychus cinnabarinus. Briefly: Acaricidal comparison, nymph test. How it is done:
Nymph test: broad bean leaves were inoculated with 10 adult mites, and the adults were removed after laying eggs for 24 hours. The eggs were fed in insect rearing room, and when they hatched into nymphs, they were sprayed with a sprayer. After treatment, the leaves with the nymphs were placed in an observation room and cultured at 25-27° C., and the results were investigated after 48 hours. A brush was used to touch the insect bodies, and the unresponsive were regarded as the dead. The test concentrations of the compound on killing cinnabarin were 5, 2.5, 1.25, 0.625, 0.3125 mg/L.

Assay [2] relates to eggs of Tetranychus cinnabarinus. Briefly: Acaricidal comparison, egg test. The method, then: Egg test: each treated broad bean leave was inoculated with 10 adults of Tetranychus cinnabarinus, and the adults were removed after the eggs were laid for 24 hours. The leaves with eggs were sprayed under Potter spray towers. After treatment, the eggs of Tetranychus cinnabarinus were placed in an observation room and cultured at 25˜27° C. And the test was examined until the eggs under the blank treatment completely hatched out. The concentration of the compound that kills the eggs of Tetranychus cinnabarinus was 100, 50, 25, 12.5, 6.25 mg/L.

The next assay relates to armyworm. Briefly: Activity test of armyworm, leaf-dipping method. The settings on record: 500 mg/L, 3rd instar larvae, after 3 days. How it is done:
A certain amount of the original drug was weighed by an analytical balance (0.0001 g), and dissolved in DMF containing 1% Tween-80 emulsifier to prepare a 1% mother liquor, which was then diluted with distilled water for later use.
The insecticidal efficacy was evaluated by a leaf-dipping method with the armyworm as a target and a spray method with Tetranychus cinnabarinus and Aphis craccivora Koch as a target.
Leaf-dipping method: the target for the test was the armyworm, and corn leaves in an appropriate amount were fully infiltrated in the prepared liquid, then dried naturally, placed in culture dishes with filter papers, inoculated with 3rd instar larvae of the armyworm at 10 heads/dish, and placed in an observation room and cultured at 24˜27° C. the results were investigated after 3 days. A brush was used to touch the insect bodies, and the unresponsive were regarded as dead insects.

Assay [3] concerns adults of Tetranychus cinnabarinus. Briefly: Acaricidal comparison, spray method on adults of Tetranychus cinnabarinus. The method, then: Spray method: the test target was Tetranychus cinnabarinus, that is, broad bean leaves inoculated with adults of Tetranychus cinnabarinus were placed under the spray treatment of Potter spray towers. After treatment, the Tetranychus cinnabarinus was placed in an observation room and cultured at 25˜27° C., and the results were investigated after 48 hours. The brush was used to touch the insect body, and the unresponsive were regarded as dead insects. The test concentrations of the compounds on killing cinnabarin were 50, 25, 12.5, 6.25, 3.125 mg/L.

Assay [4] concerns powdery mildew of cucumber. Briefly: Prevention experiment of powdery mildew of cucumber, living pot assay. The following applies: 200 ppm; cucumber seedlings, about 10 days. The method, then:
The living pot assay method was adopted, that is, the sample of the test compound was dissolved with a small amount of DMF solvent (the kind of solvent such as acetone, methanol, DMF, etc., is selected according to the solvency of the sample, and the volume ratio of the solvent amount to the spray amount is equal to or less than 0.05), diluted with water containing 0.1% Tween 80, and formulated into the test solution with a desired concentration. Cucumber seedlings at leaf period with the same growth period was sprayed evenly with the prepared agent, and aired. Each concentration was one treatment, each treatment was repeated 3 times, a control agent and a water of blank control were set separately. The fresh powdery mildew spores on the leaves of cucumbers were washed and filtered with double gauze to prepare a suspension with a concentration of about 100,000 spores/mL. The samples were inoculated by spraying, the inoculated samples were moved into artificial climate, and relative humidity was maintained at 60-70%, the temperature was maintained at 23° C., after about 10 days, grading investigation was carried out according to the morbidity of the blank control, control effect was calculated according to disease index.

Each structure is given as a SMILES string.

Regarding `CO/C=C(/C(=O)OC)c1ccccc1COc1cc(C(F)(F)F)nc(SCC=C(Cl)Cl)n1` [Compound 67], the “lethal rate on nymphs of Tetranychus cinnabarinus compared with fluacrypyrim” value in assay [1] (5, 2.5, 1.25, 0.625, 0.3125 mg/L) is reported as “better than that of fluacrypyrim”. For the same compound, the “lethal rate on eggs of Tetranychus cinnabarinus compared with fluacrypyrim” value in assay [2] (100, 50, 25, 12.5, 6.25 mg/L) is reported as “better than that of fluacrypyrim”. In the assay with armyworm, the “lethal rate on armyworm larvae” value stood at 100%. In assay [3] (50, 25, and 12.5 mg/L), the “lethal rate against adult mites compared with fluacrypyrim” value is reported as “better than that of fluacrypyrim”. Also, the “effect of preventing powdery mildew” value in assay [4] was determined as 100%.
The term mortality denotes the percentage killed. Read a low mortality as a weak lethal effect. In assay [1] (Tetranychus cinnabarinus, 48 h), `CO/C=C(/C(=O)OC)c1ccccc1COc1cc(C(F)(F)F)nc(OC(C)C)n1` [Fluacrypyrim, fluacrypyrim] had a mortality at 0.3125 µg/mL of 7.74%, a mortality at 0.625 µg/mL of 17.1%, a mortality at 1.25 µg/mL of 28.8% and a mortality at 2.5 µg/mL of 55.3%. The compound also gave a mortality at 5 µg/mL in assay [1] (Tetranychus cinnabarinus, 48 h) of 82.5%. In assay [2] (Tetranychus cinnabarinus), this compound had a mortality at 6.25 µg/mL of 10.8%, a mortality at 12.5 µg/mL of 13.6%, a mortality at 25 µg/mL of 32.2% and a mortality at 50 µg/mL of 54.9%. This compound also showed a mortality at 100 µg/mL in assay [2] (Tetranychus cinnabarinus) of 75%. In assay [3] (Tetranychus cinnabarinus, 48 h), this compound displayed a mortality at 3.125 µg/mL of 39.5%, a mortality at 6.25 µg/mL of 64.6%, a mortality at 12.5 µg/mL of 70.6% and a mortality at 25 µg/mL of 75.9%. In assay [3] (Tetranychus cinnabarinus, 48 h), this compound returned a mortality at 50 µg/mL of 88.9%.
